Several values for one entry are separate records, joined by “and”; a condition that tells them apart may be missing. Equal entries are not always repeated. Square brackets hold non-standard residues; d marks the D form. Peptide text beside a SMILES is read from it.
What was measured:
[1] = Pharmacokinetics of insulin/TCTP-PTD analog mixtures in normal rats (plasma insulin, ELISA); format: in vivo, rat; settings: for BA (relative bioavailability compared to s.c.) / AUC / Cmax / Tmax: mean ± SEM (n = 5–7); for Cmax / Tmax: ELISA
Protocol: Rats were fasted for 16 h with access to water, anesthetized by intraperitoneal injection of sodium pentobarbital (60 mg/kg), and placed in the supine position. […] Blood samples (100 µL) were collected from the rat tail 5, 10, 20, 30, 60, 90, 120 and 180 min after dosing and centrifuged at 5000 × g for 25 min to obtain plasma. […] Relative BA was calculated using the following formula: BA(%)=(AUCnasal×Doses.c.)/(AUCs.c×Dosenasal)×100%

[2] = D-form compared with L-TCTP-PTD 13; ref Bae et al., 2016; cited from earlier work
Description: Therefore, the D-TCTP-PTD analogs could negatively affect insulin delivery through the nasal mucosa.

[3] = tested on: BEAS-2B human bronchial epithelial cells; test: Cellular uptake of FITC-labeled peptides, flow cytometry; format: cell-based; settings: FITC-labeled peptides 5 µM in BEGM, BEAS-2B cells, 30 min, 37 °C, p < .05
Protocol: Cellular uptake assays were carried out to assess the membrane permeability of the new peptides, as previously described (Bae et al., [2016]). Briefly, BEAS-2B human bronchial epithelial cells (American Type Culture Collection [ATCC], Manassas, VA) were maintained in bronchial epithelial growth medium (BEGM; Lonza, Walkersville, MD) and 2 × 10^5 cells/well were seeded in 12-well plates. After 24 h, the cells were washed twice with 1 mL phosphate-buffered saline (PBS) and incubated with FITC-labeled peptides (5 µM) in BEGM for 30 min at 37 °C. The cells were then washed three times with ice-cold PBS to remove cell surface-bound peptides. After trypsinization, the cells were collected by centrifugation (1000 × g for 5 min), washed and finally resuspended in 1 mL ice-cold PBS. The internalized FITC was measured using fluorescence-activated cell sorting on a FACSCalibur flow cytometer (Becton Dickinson, San Jose, CA, USA) at emission and excitation wavelengths of 510 and 530 nm, respectively. Assays were performed in triplicate and repeated at least three times. Flow cytometric analyses were accomplished using WinMDI v.2.8 software.

[4] = ref Bae & Lee, 2013; cited from earlier work
Description: We previously reported that the human translationally controlled tumor protein (TCTP) contains a PTD at its N-terminus (TCTP-PTD) with the amino acid sequence […] al., [2011a]). To improve the penetration of peptides through the cell membrane, we designed variant peptides modified from TCTP-PTD. […] Therefore, the D-TCTP-PTD analogs could negatively affect insulin delivery through the nasal mucosa.

[5] = tested on: rats with alloxan-induced diabetes; test: Pharmacodynamics (blood glucose) of insulin/TCTP-PTD analog mixtures in diabetic rats; format: in vivo, rat; settings: area above blood glucose curve, mean ± SEM (n = 6–8)
Protocol: After 5 days, rats with fasting blood glucose levels in the range of 230-300 mg/dL were selected for the pharmacodynamic studies. […] Then, they were anesthetized by intraperitoneal injections of sodium pentobarbital (60 mg/kg). […] Blood samples were collected from the tip of the rat tail, and blood glucose levels were directly measured using an Accu-Chek glucose meter (Roche Diagnostics, Seoul, Korea). […] The area above the blood glucose curve (AAC) was calculated according to the trapezoid rule. The F% was calculated using the following equation: F%=([…])×100%

[6] = insulin 1 IU/kg intranasal plus 0.25 mM PTD
[7] = plasma insulin AUC0-180 min, insulin 1 IU/kg intranasal plus 0.25 mM PTD
[8] = plasma insulin, insulin 1 IU/kg intranasal plus 0.25 mM PTD
[9] = insulin 1 IU/kg intranasal plus 0.1 mM PTD
[10] = plasma insulin AUC0-180 min, insulin 1 IU/kg intranasal plus 0.1 mM PTD
[11] = plasma insulin, insulin 1 IU/kg intranasal plus 0.1 mM PTD

Question: Which results are given for CC[C@@H](C)[C@@H](NC(=O)[C@@H](CC(C)C)NC(=O)[C@@H](C)NC(=O)[C@@H](CCCNC(=N)N)NC(=O)[C@@H](Cc1ccccc1)NC(=O)[C@H](NC(=O)[C@H](NC(=O)[C@@H](CCSC)NC(C)=O)[C@H](C)CC)[C@H](C)CC)C(=O)N[C@H](CO)C(=O)N[C@H](Cc1c[nH]cn1)C(=O)N[C@H](CCCCN)C(=O)N[C@H](CCCCN)C(N)=O [D-TCTP-PTD 13] (Ac-[dM][dI][dI][dF][dR][dA][dL][dI][dS][dH][dK][dK]-NH2)?
Answer: BA (relative bioavailability compared to s.c.) [1, 6]: 6.8% and 6.8 ± 2.0%; AUC [1, 7]: 645.5 ± 191.2 μU/mL·min; Cmax [1, 8]: 13.8 ± 4.2 μU/mL; Tmax [1, 8]: 14.0 ± 2.4 min; antigen (ovalbumin) carrier potency through nasal mucosa (in words) [2]: more potent antigen carrier

Question: With CC[C@H](C)[C@H](NC(=O)[C@H](CC(C)C)NC(=O)[C@H](CC(C)C)NC(=O)[C@H](CCCNC(=N)N)NC(=O)[C@H](Cc1ccccc1)NC(=O)[C@@H](NC(=O)[C@@H](NC(=O)[C@H](CCSC)NC(C)=O)[C@@H](C)CC)[C@@H](C)CC)C(=O)N[C@@H](CO)C(=O)N[C@@H](Cc1c[nH]cn1)C(=O)N[C@@H](CCCCN)C(=O)N[C@@H](CCCCN)C(N)=O [L-TCTP-PTD 13M1] (Ac-MIIFRLLISHKK-NH2) as the compound, how does the “cellular uptake capacity compared with L-TCTP-PTD 13 (in words)” value [3] read?
Answer: lower

Question: What about the “BA (relative bioavailability compared to s.c.)” value [1, 9] of the same compound?
Answer: 20.9 ± 1.4%

Question: And the “BA (relative bioavailability compared to s.c.)” value [1, 6]?
Answer: 10.1 ± 2.4%

Question: What about the AUC [1, 10] of the same compound?
Answer: 1966.3 ± 130.5 μU/mL·min

Question: What about the AUC [1, 7] of the same compound?
Answer: 951.7 ± 225.9 μU/mL·min

Question: What about the Cmax [1, 11] of the same compound?
Answer: 47.1 ± 3.1 μU/mL

Question: What about the Tmax [1, 11] of the same compound?
Answer: 10.0 ± 0.0 min

Question: And the Cmax [1, 8]?
Answer: 15.0 ± 3.3 μU/mL

Question: And the Tmax [1, 8]?
Answer: 13.3 ± 2.1 min

Question: Which results are given for CC[C@H](C)[C@H](NC(=O)[C@H](CC(C)C)NC(=O)[C@H](C)NC(=O)[C@H](CCCNC(=N)N)NC(=O)[C@H](Cc1ccccc1)NC(=O)[C@@H](NC(=O)[C@@H](NC(=O)[C@H](CCSC)NC(C)=O)[C@@H](C)CC)[C@@H](C)CC)C(=O)N[C@@H](CO)C(=O)N[C@@H](Cc1c[nH]cn1)C(=O)N[C@@H](CCCCN)C(=O)N[C@@H](CCCCN)C(N)=O [L-TCTP-PTD 13] (Ac-MIIFRALISHKK-NH2)?
Answer: BA (relative bioavailability compared to s.c.) [1, 9]: 9.0 ± 1.4%; BA (relative bioavailability compared to s.c.) [1, 6]: 22.1% and 22.1 ± 2.5%; AUC [1, 10]: 847.1 ± 132.9 μU/mL·min; AUC [1, 7]: 2081.7 ± 238.6 μU/mL·min; Cmax [1, 11]: 26.4 ± 7.8 μU/mL; Tmax [1, 11]: 12.0 ± 2.0 min; Cmax [1, 8]: 53.4 ± 6.7 μU/mL; Tmax [1, 8]: 10.0 ± 0.0 min; nasal absorption of insulin compared to insulin alone (in words) [4]: enhanced nasal absorption

Question: Which AUC ([1]; AUC0-180 min, insulin s.c., 0.25 IU/kg) does the source give for “Insulin: Human recombinant insulin (27.5 IU/mg), Sigma-Aldrich” here?
Answer: 2356.4 ± 106.2 μU/mL·min

Question: What about the AUC ([1]; AUC0-180 min, trapezoid rule, insulin alone, intranasal, 5 IU/kg) of the same compound?
Answer: 180.5 ± 37.6 μU/mL·min

Question: What about the “plasma insulin after intranasal insulin alone (in words)” value ([1]; insulin 1 IU/kg intranasal, alone) of the same compound?
Answer: scarcely detectable

Question: What about the Cmax ([1]; insulin s.c., 0.25 IU/kg) of the same compound?
Answer: 40.9 ± 0.9 μU/mL

Question: And the “AAC0–240 min” value ([5]; insulin alone, intranasal, 2 IU/kg)?
Answer: 721.0 ± 478.2 % glucose/min

Question: What about the “AAC0–240 min” value ([5]; insulin s.c., 1 IU/kg) of the same compound?
Answer: 11354.3 ± 507.8 % glucose/min
